The IC50 is the point on the concentration scale where inhibition reaches its midpoint. A high value points to weaker potency. Broadly, the MIC is the lowest concentration found to suppress growth.

Assay [1] deals with T1, Dihydrofolate reductase (Bacillus anthracis, UniProt Q81R22).
T1 sequence (Q81R22 whole entry): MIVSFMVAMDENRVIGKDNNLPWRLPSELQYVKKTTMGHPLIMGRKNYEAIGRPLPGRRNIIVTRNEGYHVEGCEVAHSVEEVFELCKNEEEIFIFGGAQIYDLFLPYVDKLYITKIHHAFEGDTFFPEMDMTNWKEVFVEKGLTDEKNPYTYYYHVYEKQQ
Kind of assay: Inhibition of Bacillus anthracis DHFR.

For assay [2], the target named is T2, Dihydrofolate reductase (Homo sapiens, UniProt P00374).
T2 sequence (P00374 whole entry): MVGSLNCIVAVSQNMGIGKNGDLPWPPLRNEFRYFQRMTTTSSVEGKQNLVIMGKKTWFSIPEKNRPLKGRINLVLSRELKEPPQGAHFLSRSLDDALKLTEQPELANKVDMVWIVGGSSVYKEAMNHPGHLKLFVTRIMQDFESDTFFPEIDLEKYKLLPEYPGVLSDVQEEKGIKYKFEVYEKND
Kind of assay: Inhibition of human DHFR.

The next assay concerns Bacillus anthracis. Kind of assay: Antibacterial activity against Bacillus anthracis. The format is functional.

Turning to `CCC[C@H]1c2ccccc2C=NN1C(=O)/C=C/c1cc(Cc2cnc(N)nc2N)cc(OC)c1OC`, the IC50 worked out at 54 nM at Dihydrofolate reductase [1] and 110000 nM at Dihydrofolate reductase [2]. This molecule returned an MIC against Bacillus anthracis of at most 12.8 µg/mL.

For the molecule `C=CC(=O)N1N=Cc2ccccc2C1CCC` (stereo unspecified), the midpoint of inhibition against Dihydrofolate reductase [1], the IC50, lay at 46 nM.

Consider `CC[C@H]1c2ccccc2C=NN1C(=O)/C=C/c1cc(Cc2cnc(N)nc2N)cc(OC)c1OC`, for which, on Dihydrofolate reductase [1], the IC50 amounted to 96 nM.

For `CCCC[C@H]1c2ccccc2C=NN1C(=O)/C=C/c1cc(Cc2cnc(N)nc2N)cc(OC)c1OC`, on Dihydrofolate reductase [1], the midpoint of inhibition, the IC50, lay at 170 nM.

For the origin of these results see ChEMBL document CHEMBL1649473, “Crystal structure of Bacillus anthracis dihydrofolate reductase with the dihydrophthalazine-based trimethoprim derivative RAB1 provides a structural explanation of potency and selectivity” (Antimicrob Agents Chemother, 2009).
